{"source": "patent US9566290B2", "about": "“Boron-containing small molecules” (Anacor Pharmaceuticals, Inc., priority 2005, dated 2017)", "key": {"T. rubrum": {"tested_on": "T. rubrum", "assay": "MIC in the presence of 5% keratin powder", "type": "cell-based, Trichophyton rubrum", "procedure": "Many antifungal agents strongly bind to keratin which not only reduces their antifungal potency but also may restrict their penetration into the nail. The affinities of the compounds for keratin powder was determined by a method described in Tatsumi, Antimicrobial Agents and Chemotherapy, 46(12):3797-3801 (2002).\n(C10) is a novel compound in development for use as a topical antifungal treatment. The purpose of this study was to determine the minimum inhibitory concentration (MIC) for (C10) against 19 test strains of fungi including: Aspergillus fumigatus (A. fumigatus), Candida Albicans (C. albicans, both fluconazole sensitive and resistant strains), Candida glabrata (C. glabrata), Candida krusei (C. krusei), Cryptococcus neoformans (C. neoformans), Candida parapsilosis (C. parapsilosis), Candida tropicalis (C. tropicalis), Epidermophyton floccosum (E. floccosum), Fusarium solani (F. solani), Malassezia furfur (M. furfur), Malassezia pachydermatis (M. pachydermatis), Malassezia sympodialis (M. sympodialis), Microsporum audouinii (M. audouinii), Microsporum canis (M. canis), Microsporum gypseum (M. gypseum), Trichophyton mentagrophytes (T. mentagrophytes), Trichophyton rubrum (T. rubrum), Trichophyton tonsurans (T. tonsurans). Fungal growth was evaluated after exposure to different concentrations of (C10). […]"}, "[1]": {"assay": "Solubility in pre-saturated n-octanol or water, visual inspection", "type": "physicochemical", "procedure": "N-Octanol and water were mutually pre-saturated by vigorously stirring a mixture of both solvents for up to 12 h and the mixture was allowed to separate. Solubility in each solvent was determined by adding 10 μL of 20, 40, 200, 1000 and 5000 μg/mL of C10 in DMSO to the pre-saturated n-octanol or water. After the sample was vortexed for 10 sec, the sample was centrifuged for 10 min at ca. 3000 rpm. A visual inspection was made to determine if the sample was clear or if a pellet had formed on the bottom of the tube."}, "[2]": {"assay": "Log P determination (octanol/water) by LC/MS/MS", "type": "physicochemical", "conditions": "for Conc. in Octanol / Conc. in Water: partition", "procedure": "C10 (10 μL of […]) at 2× the final concentration was added to 0.5 mL pre-saturated n-octanol and mixed. An equal volume (0.5 mL) of pre-saturated water was added, vortex mixed and then mixed on a rotating shaker for one hour and 24 h in triplicate at ca. 25° C. The organic and aqueous layers were separated by centrifugation for 5 min at ca. 2000 rpm. Twenty five […] of the octanol (top) layer were removed and placed in a pre-labeled tube. Twenty five L of the aqueous layer (bottom) were removed, taking care to avoid octanol contamination, and placed in a pro-labeled tube.\n(§1) For the octanol sample, 25 μL of ethanol, 25 μL of water and 300 μL of acetonitrile containing the internal standard was added. For the water sample, 25 μL of ethanol, 25 μL of octanol and 300 μL of acetonitrile containing the internal standard [60 mL of acetonitrile add 6 μL of PNP (1000 μg/mL)] was added. For the calibrators 25 μL of octanol, 25 μL of water and 300 μL of acetonitrile containing the internal standard was added. The sample was vortexed for 10 seconds. Two hundred μL of the organic layer were transferred into a clean deactivated autosampler vial.\n(§2) A 1/concentration weighted linear regression was used for the quantitation of C10. All integration were performed with peak areas using Analyst version 1.3, Applied Biosystems. For C10, peak area ratios analyte to internal standard PNP were used for all quantitation.\nThe partition coefficient (P) was calculated according to the equation detailed below: P=[Sample concentration]octanol/[Sample concentration]water Log P=log10(partition coefficient) Results: […]"}, "[3]": {"assay": "Stability at room temperature in water and octanol", "type": "physicochemical", "procedure": "C10 (10 μL of 5000 μg/mL) was added both to 0.5 mL n-octanol and 0.5 mL water in triplicate. Samples were mixed. At 0 h and 24 h samples were stored at ca. −20° C. Twenty five L of sample was used for analysis.\nas §1, §2"}, "[4]": {"tested_on": "S. cerevisiae ATCC201388 bearing pRS425 or CDC60 on pRS425", "assay": "MIC with over-expression of wild type CDC60", "type": "cell-based, Saccharomyces cerevisiae", "conditions": "for MIC: Saccharomyces cerevisiae", "description": "The minimal inhibitory concentration (MIC) was essentially performed following the NCCLS guidelines outlined in the M27 protocol with the exception of using YPD or synthetic defined media (SDM).\nA 4.0 kb BamH I-Sal I DNA fragment containing the entire CDC60 open reading frame (ORF) and 700 bp of upstream sequence was amplified using KOD DNA polymerase, S. cerevisiae genomic DNA (Novagen, Madison, Wis., USA), and the primers GAGGGATCCGGTTAGTTTTAGTTCGCGAGTGACCTG and GAGGTCGACGATTTCTGGTTGCTGTTTATTGATCTT (Operon, Alameda, Calif., USA). This DNA fragment was then cloned into the […] multi-copy plasmid pRS425, and transformed into S. cerevisiae ATCC201388 (Gietz, R D et al., Methods in Enzymology 305: 87-96 (2002))."}}, "note": "Where “and” joins values, the source holds several entries; their conditions need not be identical. Identical values can stand only once. Entries after “also recorded” stand apart in the source; their conditions may differ. Like-named read-outs stand apart in the source and are kept apart here.", "data": [{"smiles": "OB1OCc2cc(F)ccc21", "note": "[C10, 5-fluorobenzo[c][1,2]oxaborol-1(3H)-ol]", "values": [{"measurement": "effect of addition of 5% keratin powder to the media on MIC", "setting": "T. rubrum", "result": "did not effect the MIC"}, {"measurement": "solubility in octanol and water, in words", "setting": "[1]; over the concentration range tested", "result": "very good"}, {"measurement": "Solubility, Octanol Visual", "setting": "[1]; targeted conc 0.800 μg/mL", "result": "Clear"}, {"measurement": "Solubility, Water Visual", "setting": "[1]; targeted conc 0.800 μg/mL", "result": "Clear"}, {"measurement": "Solubility, Octanol Visual", "setting": "[1]; targeted conc 4.00 μg/mL", "result": "Clear"}, {"measurement": "Solubility, Water Visual", "setting": "[1]; targeted conc 4.00 μg/mL", "result": "Clear"}, {"measurement": "Solubility, Octanol Visual", "setting": "[1]; targeted conc 20.0 μg/mL", "result": "Clear"}, {"measurement": "Solubility, Water Visual", "setting": "[1]; targeted conc 20.0 μg/mL", "result": "Clear"}, {"measurement": "Solubility, Octanol Visual", "setting": "[1]; targeted conc 100 μg/mL", "result": "Clear"}, {"measurement": "Solubility, Water Visual", "setting": "[1]; targeted conc 100 μg/mL", "result": "Clear"}, {"measurement": "Log P", "setting": "[2]; 1 h, replicates", "result": 1.93}, {"measurement": "Log P", "setting": "[2]; 24 h, replicates", "result": "1.89 and 1.91"}, {"measurement": "mean log P", "setting": "[2]; after 24 h (n=3)", "result": 1.93}, {"measurement": "logP at 1 h", "setting": "[2]; n-octanol/water, 1 h, replicates, read-out: Log P", "result": 2.04}, {"measurement": "logP at 24 h", "setting": "[2]; n-octanol/water, 24 h, replicates", "result": 1.97}, {"measurement": "logP at 1 h", "setting": "[2]; n-octanol/water, after 1 h (n=3), read-out: mean log P", "result": 1.97}, {"measurement": "Conc. in Octanol", "setting": "[2]; 1 h, replicates", "result": "108 µg/mL and 103 µg/mL and 115 µg/mL"}, {"measurement": "Conc. in Water", "setting": "[2]; 1 h, replicates", "result": "1.26 µg/mL and 1.21 µg/mL and 1.05 µg/mL"}, {"measurement": "Conc. in Octanol", "setting": "[2]; 24 h, replicates", "result": "109 µg/mL and 99.0 µg/mL and 104 µg/mL"}, {"measurement": "Conc. in Water", "setting": "[2]; 24 h, replicates", "result": "1.17 µg/mL and 1.28 µg/mL and 1.27 µg/mL"}, {"measurement": "stability in pure water and octanol, in words", "setting": "[3]; 24 h, without continuous mixing", "result": "stable over 24 h"}, {"measurement": "Percent Remaining 24 h versus 0 g", "setting": "[3]; Octanol", "result": 93, "unit": "%"}, {"measurement": "Mean", "setting": "[3]; Octanol, 0 h", "result": 115, "unit": "µg/mL"}, {"measurement": "Mean", "setting": "[3]; Octanol, 24 h", "result": 107, "unit": "µg/mL"}, {"measurement": "Percent Remaining 24 h versus 0 g", "setting": "[3]; Water", "result": 115, "unit": "%"}, {"measurement": "Mean", "setting": "[3]; Water, 0 h", "result": 82.5, "unit": "µg/mL"}, {"measurement": "Mean", "setting": "[3]; Water, 24 h", "result": 95.0, "unit": "µg/mL"}, {"measurement": "increase in resistance (MIC) with additional copies of CDC60", "setting": "[4]; CDC60 on multi-copy 2 μM plasmid versus same strain bearing pRS425", "result": "eight times more resistant; also recorded: eight times higher; also recorded: eight-fold"}, {"measurement": "MIC", "setting": "[4]; ATCC201388, CDC60 on pRS425 (20 copies)", "result": 1, "unit": "µg/mL"}, {"measurement": "MIC", "setting": "[4]; ATCC201388, pRS425 Plasmid control", "result": 0.125, "unit": "µg/mL"}]}]}
